Results published in patent publication US20100108083A1, “USE OF MEANS FOR TRAPPING CO2 IN A FILTER FOR PREVENTING INFLAMMATION, CANCER AND CARDIOVASCULAR DISEASES IN A SUBJECT EXPOSED TO TOBACCO SMOKE” (priority 2007, published 2010).

Key:
β-catenin = assay: ELISA of β-catenin in the nucleus of pulmonary cells of mice after CO2 inhalation; type: in vivo; settings: inhaled air with CO2 content above 10%, without decrease in oxygen, versus atmospheric air
Procedure: (§1) 2/After keeping the mice for 10 minutes in the chambers at the various concentrations of CO2 stated above, the mice were sacrificed (one hour after the start of the experiment) in order to determine the proteins β-catenin and NF-κBp65 in the nucleus of their pulmonary cells.
(§2) These two proteins are recognized markers of inflammation and of cancer. They were determined on the basis of optical density using specialized kits. β-Catenin was determined by ELISA (Catenin Enzyme Immunoassay Kit, Assay designs, Ann Arbor, Mich.) following the manufacturer's instructions. The protein NF-κB p65 was determined by another ELISA assay (TrasAM NF-κB p65 nuclear DNA based ELISA, Active Motif, Rixensart, Belgium) following the manufacturer's instructions. The values obtained, presented in the diagram in FIG. 2, are expressed relative to the total amount of proteins extracted from the cell nucleus.

NF-κB p65 = assay: ELISA of NF-κB p65 in the nucleus of pulmonary cells of mice after CO2 inhalation; type: in vivo; settings: inhaled air with CO2 content above 10%, without decrease in oxygen, versus atmospheric air
Procedure: as §1, §2

BALB/c mice [1] = assay: Plethysmography (Penh value) of mice breathing air enriched in CO2; type: in vivo
Procedure: 1/ BALB/c mice were placed in a closed chamber in which the proportion of CO2, at constant proportion of oxygen, was raised artificially to 2 (atmospheric air control), 5, 10 and 15% by injection of CO2 into the chamber every other minute. At each of these concentrations, non-invasive functional testing was carried out on the mice by plethysmography, according to the technique described by Hamelmann et al. (1997) Am J Respir Crit Care Med 156: 766-775). This technique involves assessing the respiratory distress of the mice by determining the Penh (enhanced pause) value.

BALB/c mice [2] = settings: CO2 of tobacco smoke selectively trapped by the filter, 38 minutes inhalation
Procedure: The experiment was conducted on BALB/c mice aged from 6 to 7 weeks under in vivo conditions. The number of mice used was 32 males, divided into four groups of eight. […] Each experiment lasted 38 minutes, or typically the equivalent of the consumption of 5 cigarettes by a smoker.
The mice were sacrificed after inhalation of air for 38 minutes in the four situations described above (see also the commentary of FIG. 3) and the lungs were removed immediately for analysis.
The lungs were analysed in order to measure the activity or the secretion of six proteins that are known markers of inflammation. […] These proteins are as follows: RANTES, IL-6, TNF-alpha, MIP-2, PP2A and NE-κB p65. […] Measurements of activity or of relative concentration of these proteins were performed using the following commercial kits: Mouse TNF-alpha/TNFSF1A DuoSet (ELISA assay for the concentration of TNF-alpha); Mouse CXCL2/MIP-2 DuoSet (ELISA assay for the concentration of MIP-2), Mouse CCL5/RANTES ELISpot Kit (ELISpot assay for the secretion of RANTES); Mouse IL-6 ELISpot Kit (ELISpot assay for the secretion of IL-6), all from R&D Systems (Minneapolis, Minn., USA).

O=C=O [CO2, carbon dioxide]
Expression of β-catenin in lung tissues (β-catenin): very significant increase
Expression of NF-κBp65 in lung tissues (NF-κB p65): very significant increase
Penh value, level relative to control (BALB/c mice [1]; 15% CO2 in inhaled air at constant proportion of oxygen, versus atmospheric air control): 6 times
Change of Penh value (BALB/c mice [1]; proportion of CO2 changes from 10 to 15%): doubled

[K+].[OH-] [KOH solution, potassium hydroxide]
Inflammation found in mice exposed to tobacco smoke (BALB/c mice [2]): eliminated partially or even completely
